Source: US10190120B2, “Zn-DPA complex compounds and siRNA delivery systems containing the same” (KOREA INSTITUTE OF SCIENCE AND TECHNOLOGY, priority 2016, dated 2019)

What was measured:
HCT116 cell line = assay: siRNA delivery efficiency with biotin pre-treatment (competition); format: cell-based; settings: biotin 0.5 mM and 5 mM 30 minutes before, molar ratio 1:400, FIG. 6
Description: (§1) According to Experimental Example 1 (1), composites having a molar ratio of siRNA (luciferase siRNA, siLuc) and the Zn-DPA complex compound of 1:50, 1:100, 1:200, 1:400, 1:600, 1:800, and 1:1,000 were prepared, and the concentration of siLuc per sample was adjusted constantly at 20 nM. The composite was treated with ssPEI/CMV-LUC (1 μg) in HeLa, HepG2, and HCT116 cell lines, and was washed with a Dulbecco's phosphate buffered saline solution (DPBS) after 6 hours, and then the composite was treated in a serum-free medium. After 4 hours, the medium was exchanged with a 10% serum medium, and then the samples were cultivated at 37° C. for 24 hours. The cells were washed with the DPBS and were dissolved in a lysis buffer (200 μL), and then the degree of expression of the luciferase was determined by using a microplate fluorescence analyzer (VICTOR 3 V Multilabel Counter, PerkinElmer, Wellesley, Mass.). The results are illustrated in FIG. 5.
(§2) In order to evaluate the delivery efficiency of siRNA (luciferase siRNA, siLuc) for the Zn-DPA complex compound synthesized in Example 1-3, a cell experiment was performed in the same manner as in Experimental Example 4 by classifying the experimental groups into groups treated with biotin at a concentration of 0.5 mM and 5 mM 30 minutes before treating the groups with a composite of siRNA and the Zn-DPA complex compound, or a non-treatment group. […]

HepG2 cell line = assay: as above; format: cell-based; settings: biotin 0.5 mM and 5 mM 30 minutes before, molar ratio 1:400, FIG. 6
Description: as §1, §2

O=C(CCCCC1SC[C@H]2NC(=O)N[C@@H]12)NCCCCOc1cccc(CN(Cc2ccccn2)Cc2ccccn2)c1 (some centres unmarked) [Example 1-3]
effect of biotin on cell delivery efficiency / amount of luciferase expressed (HCT116 cell line): slight
effect of biotin on cell delivery efficiency / amount of luciferase expressed (HepG2 cell line): significantly varied depending on the presence or absence of biotin
